In patent US20090104214A1 (priority 2004, published 2009):

Key:
[1] = molecular target: PA63-LF binding (Bacillus anthracis, UniProt P13423)
[2] = tested on: J774A.1 cells incubated with PA83 and LF; format: cell-based, mouse
[3] = molecular target: anthrax lethal toxin (PA83 and LF) (Bacillus anthracis, UniProt P13423); settings: rat, in vivo, iv
[4] = molecular target: T1, PA63 (Bacillus anthracis, UniProt P13423)
[5] = molecular target: purified recombinant PA83 (Bacillus anthracis, UniProt P13423)
[6] = molecular target: LF (Bacillus anthracis, UniProt P15917)
[7] = molecular target: T1, PA63; remark: listed apart in the source

Chain of PA63-LF binding (P13423 197-764 limits assumed): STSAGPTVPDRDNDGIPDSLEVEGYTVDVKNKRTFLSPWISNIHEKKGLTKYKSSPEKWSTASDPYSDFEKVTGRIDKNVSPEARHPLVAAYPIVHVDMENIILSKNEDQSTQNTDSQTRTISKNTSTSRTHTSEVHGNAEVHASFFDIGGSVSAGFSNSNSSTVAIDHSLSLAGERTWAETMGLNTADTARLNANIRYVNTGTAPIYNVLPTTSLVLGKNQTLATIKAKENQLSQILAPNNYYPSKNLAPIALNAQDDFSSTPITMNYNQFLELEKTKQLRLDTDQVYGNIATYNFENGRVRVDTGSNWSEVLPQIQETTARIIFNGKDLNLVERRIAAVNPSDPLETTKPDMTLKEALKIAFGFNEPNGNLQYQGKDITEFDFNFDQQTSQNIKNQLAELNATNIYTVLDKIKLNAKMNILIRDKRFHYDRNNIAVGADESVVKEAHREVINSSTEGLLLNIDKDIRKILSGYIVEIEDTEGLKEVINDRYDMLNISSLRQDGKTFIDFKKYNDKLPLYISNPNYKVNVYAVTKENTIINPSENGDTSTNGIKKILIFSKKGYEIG
T1 sequence (P13423 197-764 limits assumed): as above
Chain of anthrax lethal toxin (PA83 and LF) (P13423 197-764 limits assumed): as above
Chain of purified recombinant PA83 (P13423 30-764 limits assumed): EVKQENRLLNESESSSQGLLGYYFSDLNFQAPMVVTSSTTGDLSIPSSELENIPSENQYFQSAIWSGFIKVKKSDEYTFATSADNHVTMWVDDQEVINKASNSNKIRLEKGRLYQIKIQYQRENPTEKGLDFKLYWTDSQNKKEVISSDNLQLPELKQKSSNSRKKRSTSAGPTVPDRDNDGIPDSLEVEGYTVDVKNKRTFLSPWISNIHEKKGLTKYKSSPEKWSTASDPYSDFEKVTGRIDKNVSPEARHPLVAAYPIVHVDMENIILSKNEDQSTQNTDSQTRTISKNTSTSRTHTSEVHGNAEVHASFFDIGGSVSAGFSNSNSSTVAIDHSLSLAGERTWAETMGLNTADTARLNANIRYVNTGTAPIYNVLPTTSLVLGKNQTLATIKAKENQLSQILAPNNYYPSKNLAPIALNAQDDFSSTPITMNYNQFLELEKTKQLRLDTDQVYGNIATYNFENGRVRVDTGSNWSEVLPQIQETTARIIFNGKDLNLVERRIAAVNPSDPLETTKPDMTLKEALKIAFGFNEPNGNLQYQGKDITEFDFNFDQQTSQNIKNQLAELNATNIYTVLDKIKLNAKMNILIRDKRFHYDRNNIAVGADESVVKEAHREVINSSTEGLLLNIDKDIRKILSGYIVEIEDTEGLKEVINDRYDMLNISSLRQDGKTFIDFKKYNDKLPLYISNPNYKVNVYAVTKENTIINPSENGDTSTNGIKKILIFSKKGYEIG
Chain of LF (P15917 34-809 limits assumed): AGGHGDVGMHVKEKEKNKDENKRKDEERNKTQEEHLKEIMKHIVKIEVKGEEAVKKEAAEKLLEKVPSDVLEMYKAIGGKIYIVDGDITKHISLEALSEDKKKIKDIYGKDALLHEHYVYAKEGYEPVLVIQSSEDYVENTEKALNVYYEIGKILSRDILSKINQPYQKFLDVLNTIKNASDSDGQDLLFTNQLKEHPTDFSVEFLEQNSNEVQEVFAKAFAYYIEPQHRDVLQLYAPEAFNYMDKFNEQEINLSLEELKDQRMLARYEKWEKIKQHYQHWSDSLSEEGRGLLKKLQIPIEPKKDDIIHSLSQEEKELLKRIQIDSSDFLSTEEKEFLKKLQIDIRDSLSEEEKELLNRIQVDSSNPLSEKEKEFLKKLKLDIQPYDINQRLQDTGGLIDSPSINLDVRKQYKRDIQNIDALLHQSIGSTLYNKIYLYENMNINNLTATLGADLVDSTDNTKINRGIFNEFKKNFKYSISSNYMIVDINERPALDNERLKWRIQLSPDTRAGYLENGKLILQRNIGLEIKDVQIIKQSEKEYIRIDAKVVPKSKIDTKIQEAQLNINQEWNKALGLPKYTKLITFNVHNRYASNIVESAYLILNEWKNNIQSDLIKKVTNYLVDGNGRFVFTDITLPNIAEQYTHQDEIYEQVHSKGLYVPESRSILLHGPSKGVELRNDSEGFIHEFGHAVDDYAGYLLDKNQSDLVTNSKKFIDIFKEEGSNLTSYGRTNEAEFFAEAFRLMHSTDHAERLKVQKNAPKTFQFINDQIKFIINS

Row | Substance | effective in blocking the interaction of PA with LF (summary statement) [1] | inhibition of PA63-LF binding in ELISA, substitution of position 2 of MAP 3 [1] | further results
1 | AVMTYWWLDPPL | Particularly effective | – | inhibition of PA63-LF binding in ELISA, alanine scanning of MAP3 [1]: better efficiency
2 | NAMTYWWLDPPL [MAP3V/A] | Particularly effective | – | IC50 for inhibition of PA83/LF-induced cell mortality, compared with MAP3 [2]: one log lower than that of MAP3; inhibition of PA63-LF binding in ELISA, alanine scanning of MAP3 [1]: better efficiency; neutralization of lethal toxin toxicity in rats [3]: completely neutralized toxicity
3 | NDMTYWWLDPPL | Particularly effective | good efficiency | –
4 | NEMTYWWLDPPL | Particularly effective | good efficiency | –
5 | NGMTYWWLDPPL | Particularly effective | good efficiency | –
6 | NNMTYWWLDPPL | Particularly effective | good efficiency | –
7 | NPMTYWWLDPPL | Particularly effective | good efficiency | –
8 | NQMTYWWLDPPL | Particularly effective | good efficiency | –
9 | NSMTYWWLDPPL | Particularly effective | good efficiency | –
10 | NTMTYWWLDPPL | Particularly effective | good efficiency | –
11 | NVMTYWWLAPPL | Particularly effective | – | inhibition of PA63-LF binding in ELISA, alanine scanning of MAP3 [1]: better efficiency
12 | NVMTYWWLDPPA | Particularly effective | – | inhibition of PA63-LF binding in ELISA, alanine scanning of MAP3 [1]: better efficiency
13 | NVMTYWWLDPPL [MAP3] | Particularly effective | – | IC50 of inhibition of PA63-LF binding in ELISA, compared with MAP2 [1]: about one log lower than that of MAP2; neutralization of lethal toxin toxicity in rats [3]: completely neutralized toxicity; binding to PA63 in ELISA [4]: specifically bound; binding to purified recombinant PA83 in ELISA [5]: did not bind; binding to LF in ELISA [6]: did not bind
14 | NVMTYWWLDPPL [p3] | – | – | equilibrium association constant KA of peptide-PA63 binding [7]: 3.4e+07 M⁻¹; koff [7]: 0.0004 s⁻¹; kon [7]: 14000 M⁻¹ s⁻¹
15 | NYMTYWWLDPPL | Particularly effective | good efficiency | –
16 | TLAYWWLTPSNP | Particularly effective | – | –
17 | TLPYWWLTPSNP [MAP2] | Particularly effective | – | binding to PA63 in ELISA [4]: specifically bound; binding to purified recombinant PA83 in ELISA [5]: did not bind; binding to LF in ELISA [6]: did not bind
18 | TLPYWWLTPSNP [p2] | – | – | equilibrium association constant KA of peptide-PA63 binding [7]: 7.2e+06 M⁻¹; koff [7]: 0.0007 s⁻¹; kon [7]: 5000 M⁻¹ s⁻¹
19 | YWWLDPP | Particularly effective | – | –
20 | YWWLEPP | Particularly effective | – | –
21 | YWWLHPP | Particularly effective | – | –
22 | YWWLKPP | Particularly effective | – | –
23 | YWWLQPP | Particularly effective | – | –
24 | YWWLTP | – | – | inhibition of PA63-LF binding in ELISA, shortening of MAP2 and re-elongation of YWWLTP [1]: minimal sequence able to inhibit PA-LF binding
25 | YWWLTPP | Particularly effective | – | inhibition of PA63-LF binding in ELISA, shortening of MAP2 and re-elongation of YWWLTP [1]: superior inhibitory efficiency
26 | YWWLTPPA | Particularly effective | – | inhibition of PA63-LF binding in ELISA, shortening of MAP2 and re-elongation of YWWLTP [1]: even better efficiency
27 | YWWLTPPP [8mer peptide YWWLTPPP] | – | – | KA fold higher than that of lead 12mer p2 [7]: about 10 fold; equilibrium association constant KA of peptide-PA63 binding [7]: 6.8e+07 M⁻¹; koff [7]: 0.0013 s⁻¹; kon [7]: 88000 M⁻¹ s⁻¹
28 | YWWLTPPP [MAP YWWLTPPP] | Particularly effective | – | inhibition of PA63-LF binding in ELISA, shortening of MAP2 and re-elongation of YWWLTP [1]: even better efficiency; neutralization of lethal toxin toxicity in rats [3]: completely neutralized toxicity
29 | YWWLTPPQ | Particularly effective | – | inhibition of PA63-LF binding in ELISA, shortening of MAP2 and re-elongation of YWWLTP [1]: even better efficiency
